According to patent US12331068B2, “Compositions and methods for inhibiting CD73” (Peloton Therapeutics, Inc., priority 2018, dated 2025):
Read-outs that look alike come from different tables or passages of the source.

How the values were obtained:
Human CD73 = molecular target: T1, Human CD73 (Homo sapiens, UniProt P21589); experiment: CD73 Enzyme Assay (EnzChek PNP/MESG kinetic readout of AMP hydrolysis); assay type: biochemical; conditions: 0.25 nM hCD73, 25 μM AMP; read-out: CD73 Enzyme Assay IC50
T1 construct: purchased R&D Systems; host or cells: CHO cells
T1 sequence (P21589 27-549): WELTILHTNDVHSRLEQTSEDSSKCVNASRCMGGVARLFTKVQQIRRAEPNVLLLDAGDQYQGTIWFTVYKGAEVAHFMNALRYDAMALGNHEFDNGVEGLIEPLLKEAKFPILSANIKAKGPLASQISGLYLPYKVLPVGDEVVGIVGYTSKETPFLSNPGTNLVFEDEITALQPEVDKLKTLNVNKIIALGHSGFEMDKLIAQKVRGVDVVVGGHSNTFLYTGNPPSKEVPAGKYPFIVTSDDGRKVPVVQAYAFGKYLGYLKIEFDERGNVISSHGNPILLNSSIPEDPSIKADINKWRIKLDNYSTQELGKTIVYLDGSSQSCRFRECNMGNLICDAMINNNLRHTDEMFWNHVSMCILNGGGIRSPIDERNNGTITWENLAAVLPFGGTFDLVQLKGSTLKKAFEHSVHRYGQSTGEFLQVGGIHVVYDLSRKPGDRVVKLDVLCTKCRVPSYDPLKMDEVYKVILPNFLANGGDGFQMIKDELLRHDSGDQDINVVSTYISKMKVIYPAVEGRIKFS
Method: A compound of the present disclosure (5 μL) was transferred to a 384-well assay plate. The compound was added in a 15 point, 3-fold serial dilution (300 μM to 0.0002 μM) in DMSO. […] The plate was immediately placed in a plate reader (Synergy 2 or Spark 10), and a reading was taken every minute for 10 to 20 minutes in a kinetic run at 360 nm. The linear portion of the curve was used to determine the observed rate (initial velocity). Low signal controls containing 100 μM adenosine 5′-(α,β-methylene) diphosphate and high signal controls containing no compound were measured for each plate.
IC50 values were calculated using Dotmatics template equation for 4-parameter fit. Results are expressed as % inhibition using the following equation: […]

[1] = molecular target: T2, CD73 on U138 human neuroglioma cells (Homo sapiens, UniProt P21589); experiment: CD73 Cell-Based Assay (inorganic phosphate from AMP, malachite green); conditions: AMP substrate, 2 hours at 37° C.
T2 construct: U138 cells were obtained from ATCC and cultured in DMEM with 10% FBS; host or cells: U138 human neuroglioma cells
T2 sequence (P21589 27-549): T1 sequence (P21589 27-549)
Method: U138 human neuroglioma cells were used in these experiments. U138 cells were obtained from ATCC and cultured in DMEM with 10% FBS. 2500 cells were seeded into 96-well plate with 100 μL of media the day before the experiment. […] After washing, 100 μL of buffer was added to each well, then 100 μL of a mixture of AMP substrate (200 μM) and diluted compound was added to each well. The cells were incubated at 37° C. (with 5% CO2) for 2 hours. 50 μL of supernatant was transferred to a 96-well assay plate and the concentration of inorganic phosphate was determined using malachite green reagent (R&D System; Cat: DY996).

[2] = read-out: CD73 Cell-Based assay IC50

Compound	IC50 (Human CD73) [nM]	IC50 [1, 2] [nM]	IC50 ([1]; read-out: IC50) [nM]
C[C@H](Nc1c(C#N)c(Cl)nc2c1ncn2[C@@H]1O[C@H](COP(=O)(O)CP(=O)(O)O)[C@@H](O)[C@H]1O)c1ccc(C#N)cc1 [Compound 227]	< 10	< 10	
C[C@@H](Nc1c(C#N)c(Cl)nc2c1ccn2[C@@H]1O[C@H](CS(=O)(=O)CP(=O)(O)O)[C@@H](O)[C@H]1O)c1ccc(F)cc1 [Compound 27, (((((2S,3S,4R,5R)-5-(6-chloro-5-cyano-4-(((R)-1-(4-fluorophenyl)ethyl)amino)-1H-pyrrolo[2,3-b]pyridin-1-yl)-3,4-dihydroxytetrahydrofuran-2-yl)methyl)sulfonyl)methyl)phosphonic acid]	< 10	< 10	
C[C@@H](Nc1c(C#N)c(Cl)nc2c1cnn2[C@@H]1O[C@H](CS(=O)(=O)CP(=O)(O)O)[C@@H](O)[C@H]1O)c1cccc(C#N)c1 [Compound 193]	< 10	< 10	
C[C@H](Nc1c(C#N)c(Cl)nc2c1ncn2[C@@H]1O[C@H](COP(=O)(O)CP(=O)(O)O)[C@@H](O)[C@H]1O)c1ccc(F)cn1 [Compound 240]	< 10	< 10	
NC(=O)c1c(Cl)nc2c(ccn2C2O[C@H](COCP(=O)(O)O)[C@@H](O)[C@H]2O)c1NC1CCCC1 (some centres unmarked) [Compound 39]	< 10	10 to 100	
CN(c1c(C#N)c(Cl)nc2c1ccn2[C@@H]1O[C@H](CS(=O)(=O)CP(=O)(O)O)[C@@H](O)[C@H]1O)C1CC(F)(F)C1 [Compound 154]	< 10	< 10	
N#Cc1c(Cl)nc2c(ccn2[C@@H]2O[C@H](CS(=O)(=O)CP(=O)(O)O)[C@@H](O)[C@@H]2F)c1NC1CC(F)(F)C1 [Compound 169]	< 10	< 10	
C[C@@H](Nc1c(C#N)c(Cl)nc2c1ncn2[C@@H]1O[C@H](COP(=O)(O)CP(=O)(O)O)[C@@H](O)[C@H]1O)c1ccccc1F [Compound 208, (((((2R,3S,4R,5R)-5-(5-chloro-6-cyano-7-(((R)-1-(2-fluorophenyl)ethyl)amino)-3H-imidazo[4,5-b]pyridin-3-yl)-3,4-dihydroxytetrahydrofuran-2-yl)methoxy)(hydroxy)phosphoryl)methyl)phosphonic acid]	< 10	< 10	
N#Cc1c(Cl)nc2c(ncn2[C@@H]2O[C@H](COCP(=O)(O)O)[C@@H](O)[C@H]2O)c1N1CC2CCCC2C1 (some centres unmarked) [Compound 57]	< 10	< 10	
Cc1nc2c(ccn2[C@@H]2O[C@H](COCP(=O)(O)O)[C@@H](O)[C@H]2O)c(NC2CCCC2)c1C#N [Compound 44]	< 10	< 10	
N#Cc1c(Cl)nc2c(cnn2[C@@H]2O[C@H](CS(=O)(=O)CP(=O)(O)O)[C@@H](O)[C@H]2O)c1N[C@H]1C[C@H](F)C1 [Compound 144, (((((2S,3S,4R,5R)-5-(6-chloro-5-cyano-4-(((1r,3R)-3-fluorocyclobutyl)amino)-1H-pyrazolo[3,4-b]pyridin-1-yl)-3,4-dihydroxytetrahydrofuran-2-yl)methyl)sulfonyl)methyl)phosphonic acid]	< 10	< 10	
N#Cc1nc2c(ccn2[C@@H]2O[C@H](COCP(=O)(O)O)[C@@H](O)[C@H]2O)c(N2C[C@@H](F)[C@@H](F)C2)c1Cl [Compound 103]	< 10	< 10	
N#Cc1c(Cl)nc2c(ccn2[C@@H]2O[C@H](COP(=O)(O)CP(=O)(O)O)[C@@H](O)[C@H]2O)c1NC1CC2CC2C1 (some centres unmarked) [Compound 28]	< 10	< 10	
C[C@@H](Nc1c(C#N)c(Cl)nc2c1ncn2[C@@H]1O[C@H](COP(=O)(O)CP(=O)(O)O)[C@@H](O)[C@@H]1F)c1ccc(F)cc1 [Compound 250]	< 10	< 10	
C[C@@H](Nc1c(C#N)c(Cl)nc2c1ncn2[C@@H]1O[C@H](COP(=O)(O)CP(=O)(O)O)[C@@H](O)[C@H]1O)c1ccc(C#N)cc1 [Compound 226]	< 10	< 10	

Results, then the molecule that gave them:

IC50 (Human CD73) [nM]	IC50 [1, 2] [nM]	IC50 ([1]; read-out: IC50) [nM]	Compound
< 10	< 10		N#Cc1c(Cl)nc2c(ccn2[C@@H]2O[C@H](COP(=O)(O)CP(=O)(O)O)[C@@H](O)[C@@H]2F)c1NC1CC(F)(F)C1 [Compound 228]
< 10	< 10	0.1	N#Cc1c(Cl)nc2c(ccn2[C@@H]2O[C@H](CS(=O)(=O)CP(=O)(O)O)[C@@H](O)[C@H]2O)c1NC1CCCC1 [Compound 25, (((((2S,3S,4R,5R)-5-(6-chloro-5-cyano-4-(cyclopentylamino)-1H-pyrrolo[2,3-b]pyridin-1-yl)-3,4-dihydroxytetrahydrofuran-2-yl)methyl)sulfonyl)methyl)phosphonic acid]
< 10	< 10		CC(C)Nc1c(C#N)c(Cl)nc2c1ccn2[C@@H]1O[C@H](COP(=O)(O)CP(=O)(O)O)[C@@H](O)[C@H]1O [Compound 207]
< 10	< 10		N#Cc1c(Cl)nc2c(ncn2[C@@H]2O[C@H](COCP(=O)(O)O)[C@@H](O)[C@H]2O)c1N1C[C@@H](F)[C@@H](F)C1 [Compound 92, ((((2R,3S,4R,5R)-5-(5-chloro-6-cyano-7-((3S,4R)-3,4-difluoropyrrolidin-1-yl)-3H-imidazo[4,5-b]pyridin-3-yl)-3,4-dihydroxytetrahydrofuran-2-yl)methoxy)methyl)phosphonic acid]
< 10	< 10		N#Cc1c(Cl)nc2c(ccn2[C@@H]2O[C@H](COCP(=O)(O)O)[C@@H](O)[C@H]2O)c1N1CC[C@H](F)C1 [Compound 60]
< 10	> 100		N#Cc1c(Cl)nc2c(c(F)cn2[C@@H]2O[C@H](CS(=O)(=O)CP(=O)(O)O)[C@@H](O)[C@H]2O)c1N1CCC(F)(F)C1 [Compound 152]
< 10	< 10		C[C@@H](Nc1c(C#N)c(Cl)nc2c1ccn2[C@@H]1O[C@H](COP(=O)(O)CP(=O)(O)O)[C@@H](O)[C@H]1O)c1ccc(F)cn1 [Compound 222, (((((2R,3S,4R,5R)-5-(6-chloro-5-cyano-4-(((R)-1-(5-fluoropyridin-2-yl)ethyl)amino)-1H-pyrrolo[2,3-b]pyridin-1-yl)-3,4-dihydroxytetrahydrofuran-2-yl)methoxy)(hydroxy)phosphoryl)methyl)phosphonic acid]
< 10	< 10		N#Cc1c(Cl)nc2c(ccn2[C@@H]2O[C@H](COCP(=O)(O)O)[C@@H](O)[C@H]2O)c1NC1CC2(CC2)C1 [Compound 157]
< 10	< 10		N#Cc1c(Cl)nc2c(cnn2[C@@H]2O[C@H](COCP(=O)(O)O)[C@@H](O)[C@H]2O)c1N1C[C@@H](F)[C@@H](F)C1 [Compound 91, ((((2R,3S,4R,5R)-5-(6-chloro-5-cyano-4-((3S,4R)-3,4-difluoropyrrolidin-1-yl)-1H-pyrazolo[3,4-b]pyridin-1-yl)-3,4-dihydroxytetrahydrofuran-2-yl)methoxy)methyl)phosphonic acid]
< 10	< 10		N#Cc1c(Cl)nc2c(ccn2[C@@H]2O[C@H](COP(=O)(O)CP(=O)(O)O)[C@@H](O)[C@@H]2F)c1N1CCC(F)(F)C1 [Compound 96]
< 10	< 10		N#Cc1c(Cl)nc2c(ccn2[C@@H]2O[C@H](COCP(=O)(O)O)[C@@H](O)[C@H]2O)c1NC1CC2CC2C1 (some centres unmarked) [Compound 26]
